Experiment [1] concerns the target T1, solubilised human IR-A (Homo sapiens, UniProt P06213).
T1 construct: made in house; host or cells: baby hamster kidney (BHK) cells overexpressing the IR-A holoreceptor
As to the kind of experiment: Insulin receptor affinity on solubilised receptors, SPA competition binding, 0% HSA. Particulars: solubilised cloned human insulin receptor A isoform, % relative to human insulin.

In experiment [2] the target is T1, solubilised human IR-A. As to the kind of experiment: Insulin receptor affinity on solubilised receptors, SPA competition binding, binding buffer with […] HSA. Particulars: solubilised cloned human insulin receptor A isoform, % relative to human insulin.
The target in experiment [3] is T2, membrane-associated human IR-A (Homo sapiens, UniProt P06213).
T2 construct: expressed in transfected cells; host or cells: BHK cells stably transfected with pZem219B vector (plasma membrane preparation)
T2 sequence (P06213 28-746 isoform P06213-2 limits assumed): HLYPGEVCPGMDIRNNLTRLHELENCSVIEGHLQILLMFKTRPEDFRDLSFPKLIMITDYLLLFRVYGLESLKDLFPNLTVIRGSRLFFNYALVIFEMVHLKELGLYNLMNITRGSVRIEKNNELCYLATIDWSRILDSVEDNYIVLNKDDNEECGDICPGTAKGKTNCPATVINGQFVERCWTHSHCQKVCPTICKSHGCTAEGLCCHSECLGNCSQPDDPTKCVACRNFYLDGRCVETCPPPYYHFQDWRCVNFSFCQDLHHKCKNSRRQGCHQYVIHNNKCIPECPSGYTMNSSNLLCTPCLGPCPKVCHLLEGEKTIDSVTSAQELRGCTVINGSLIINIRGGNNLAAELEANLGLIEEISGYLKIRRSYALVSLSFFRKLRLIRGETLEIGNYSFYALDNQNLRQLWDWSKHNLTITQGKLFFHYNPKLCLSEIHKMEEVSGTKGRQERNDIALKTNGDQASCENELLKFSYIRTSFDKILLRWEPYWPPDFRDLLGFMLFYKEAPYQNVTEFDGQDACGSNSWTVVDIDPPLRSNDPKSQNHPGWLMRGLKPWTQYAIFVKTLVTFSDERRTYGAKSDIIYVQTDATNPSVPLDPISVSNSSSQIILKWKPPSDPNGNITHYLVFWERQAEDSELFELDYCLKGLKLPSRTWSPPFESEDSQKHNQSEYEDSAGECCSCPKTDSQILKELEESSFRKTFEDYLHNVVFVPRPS
T2 sequence (P06213 763-1382 partner limits assumed): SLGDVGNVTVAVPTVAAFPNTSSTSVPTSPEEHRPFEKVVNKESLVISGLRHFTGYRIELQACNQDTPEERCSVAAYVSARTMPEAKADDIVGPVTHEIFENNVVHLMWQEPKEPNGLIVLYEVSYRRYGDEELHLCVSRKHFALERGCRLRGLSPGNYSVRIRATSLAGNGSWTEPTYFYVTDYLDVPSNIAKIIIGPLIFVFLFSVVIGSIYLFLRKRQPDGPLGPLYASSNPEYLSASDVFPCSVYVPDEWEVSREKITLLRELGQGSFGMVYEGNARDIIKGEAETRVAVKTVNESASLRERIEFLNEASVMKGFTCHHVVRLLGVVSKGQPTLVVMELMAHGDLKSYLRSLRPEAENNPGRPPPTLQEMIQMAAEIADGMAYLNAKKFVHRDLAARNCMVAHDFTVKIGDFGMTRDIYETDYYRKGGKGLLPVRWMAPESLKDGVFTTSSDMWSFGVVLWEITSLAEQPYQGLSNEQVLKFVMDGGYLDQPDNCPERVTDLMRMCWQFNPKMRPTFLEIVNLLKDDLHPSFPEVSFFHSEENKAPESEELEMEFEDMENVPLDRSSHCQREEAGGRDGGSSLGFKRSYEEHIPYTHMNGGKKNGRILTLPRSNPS
As to the kind of experiment: Insulin receptor affinity on membrane-associated receptors, SPA competition binding. The method, then:
(§1) Membrane-associated human IR and IGF-1R are purified from BHK cells stably transfected with the pZem219B vector containing either the human IR-A, IR-B or IGF-IR insert. BHK cells are harvested and homogenized in ice-cold buffer (25 mM HEPES pH 7.4, 25 mM CaCl2 and 1 mM MgCl2, 250 mg/L bacitracin, 0.1 mM Pefablock). […] The pellets are re-suspended in a minimal volume of buffer and drawn through a needle (size 23) three times before storage at −80° C. until usage.
(§2) The relative binding affinity for either of the membrane-associated human IR-A, IR-B or IGF-1R is determined by competition binding in a SPA setup. IR assays are performed in duplicate in 96-well OptiPlates (Perkin-Elmer Life Sciences). […] Assays are terminated by centrifugation of the plate at 2000 rpm for 2 minutes and bound radioactivity quantified by counting on a TopCount NXT (Perkin-Elmer Life Sciences).
(§3) IGF-1R assays are conducted essentially as for the IR binding assays except that membrane-associated IGF-1R and 50 pM [^125 I-Tyr31]-human IGF-1 were employed.

Experiment [4] deals with T3, membrane-associated human IGF-1R (Homo sapiens, UniProt P08069).
T3 construct: expressed in transfected cells; host or cells: BHK cells stably transfected with pZem219B vector (plasma membrane preparation)
T3 sequence (P08069 31-736 limits assumed): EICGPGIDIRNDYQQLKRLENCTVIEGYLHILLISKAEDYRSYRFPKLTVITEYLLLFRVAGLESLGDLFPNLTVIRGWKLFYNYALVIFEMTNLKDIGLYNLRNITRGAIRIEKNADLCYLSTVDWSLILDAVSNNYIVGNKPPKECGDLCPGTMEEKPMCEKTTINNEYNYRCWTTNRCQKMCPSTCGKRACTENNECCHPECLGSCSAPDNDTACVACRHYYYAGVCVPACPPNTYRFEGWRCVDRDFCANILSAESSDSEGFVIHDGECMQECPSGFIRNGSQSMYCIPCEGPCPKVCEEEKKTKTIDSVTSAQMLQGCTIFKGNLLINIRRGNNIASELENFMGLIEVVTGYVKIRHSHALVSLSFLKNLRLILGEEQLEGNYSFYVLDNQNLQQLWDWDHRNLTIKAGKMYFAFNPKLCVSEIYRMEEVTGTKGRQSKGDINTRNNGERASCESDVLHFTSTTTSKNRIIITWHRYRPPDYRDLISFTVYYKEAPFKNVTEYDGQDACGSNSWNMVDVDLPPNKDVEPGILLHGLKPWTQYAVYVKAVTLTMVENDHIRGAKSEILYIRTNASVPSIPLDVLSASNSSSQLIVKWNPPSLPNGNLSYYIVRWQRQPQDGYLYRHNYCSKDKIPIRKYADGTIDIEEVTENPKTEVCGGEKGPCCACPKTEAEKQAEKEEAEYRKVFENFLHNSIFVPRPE
T3 sequence (P08069 741-1367 partner limits assumed): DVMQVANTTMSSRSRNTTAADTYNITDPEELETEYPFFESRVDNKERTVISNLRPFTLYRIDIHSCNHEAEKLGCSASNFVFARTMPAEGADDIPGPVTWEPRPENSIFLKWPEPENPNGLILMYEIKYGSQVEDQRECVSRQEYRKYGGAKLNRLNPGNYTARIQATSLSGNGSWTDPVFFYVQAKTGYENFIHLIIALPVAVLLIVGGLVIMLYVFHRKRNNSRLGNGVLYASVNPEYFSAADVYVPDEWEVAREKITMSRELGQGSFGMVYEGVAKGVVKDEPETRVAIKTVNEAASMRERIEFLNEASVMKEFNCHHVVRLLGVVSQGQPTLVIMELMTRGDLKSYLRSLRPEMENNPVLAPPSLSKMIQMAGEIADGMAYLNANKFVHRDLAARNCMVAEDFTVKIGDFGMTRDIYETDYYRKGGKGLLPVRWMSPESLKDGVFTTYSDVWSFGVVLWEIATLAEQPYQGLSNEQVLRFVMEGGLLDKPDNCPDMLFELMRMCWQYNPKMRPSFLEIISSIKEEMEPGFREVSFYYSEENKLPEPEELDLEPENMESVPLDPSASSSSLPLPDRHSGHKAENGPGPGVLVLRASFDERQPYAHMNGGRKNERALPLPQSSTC
As to the kind of experiment: IGF-1 receptor affinity on membrane-associated receptors, SPA competition binding. The following applies: membrane-associated cloned human IGF-1R, % relative to human insulin. The method, then: as §1, §2, §3

T1 sequence (P06213 28-746 isoform P06213-2 limits assumed): as the sequence (P06213 28-746 isoform P06213-2 limits assumed) above
T1 sequence (P06213 763-1382 partner limits assumed): as the sequence (P06213 763-1382 partner limits assumed) above

As to “A22K(N(Eps)-Tetradecanedioyl-2×OEG), desB27, B29R, desB30 Human Insulin [Example 17]”, the “Relative IR-A affinity (@ 0% HSA)” value at solubilised human IR-A [1] came out at 241.7%. The “Relative IR-A affinity (@ […] HSA)” value at solubilised human IR-A [2] is reported as 117.9%. Moreover, in experiment [3] (membrane-associated cloned human IR-A, 0.1% HSA, % relative to human insulin), the “Relative IR-A affinity (@ 0.1% HSA)” value came out at 117.3%. Further, the “IR IGF1 ratio” value in experiment [3] (ratio of IR-A to IGF-1R affinities from membrane-associated receptors) is recorded as 0.21. In addition, the “Relative IGF-1R affinity (@ 0.1% HSA)” value in experiment [4] is on record as 546.4%.

Source of the values: US10040839B2, “Insulin derivatives and the medical uses hereof” (Novo Nordisk A/S, priority 2014, dated 2018).
